Where two headings read alike, the source gives them in different places.
Target: T1, human APJ receptor (Homo sapiens, UniProt P35414)
T1 construct: expressed in transfected cells
T1 sequence (P35414 1-380): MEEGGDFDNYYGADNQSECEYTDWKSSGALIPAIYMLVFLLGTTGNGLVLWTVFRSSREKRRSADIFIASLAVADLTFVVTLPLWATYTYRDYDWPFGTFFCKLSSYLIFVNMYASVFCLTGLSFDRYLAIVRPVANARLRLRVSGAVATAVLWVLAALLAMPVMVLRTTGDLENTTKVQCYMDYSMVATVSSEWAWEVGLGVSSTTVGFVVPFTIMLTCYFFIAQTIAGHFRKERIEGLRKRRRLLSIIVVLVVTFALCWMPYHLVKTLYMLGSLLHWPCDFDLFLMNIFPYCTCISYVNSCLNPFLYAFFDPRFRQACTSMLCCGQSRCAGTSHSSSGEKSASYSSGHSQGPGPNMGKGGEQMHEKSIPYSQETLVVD
Experiment: Intracellular cAMP accumulation assay (APJ hcAMP, HTRF)
Format: cell-based
Procedure, shortened: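 Inhibition of 2 μM forskolin-driven cAMP ([…] present) measured by HTRF in 5,000 HEK293 cells/well stably expressing human APJ, 30 min, room temperature. EC50 came from a variable-slope sigmoidal fit; Ymax was relative to (Pyr1)apelin-13 set at 100%.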

[1] = Table 1, HEK293 cells stably expressing human APJ receptor, inhibition of forskolin-mediated cAMP production, read-out: APJ hcAMP EC50
[2] = Table 3, HEK293 cells stably expressing human APJ receptor, read-out: APJ cAMP Human EC50
[3] = human APJ, cAMP, potency range class, read-out: APJ cAMP Human EC50

Row | Compound | EC50 [1] [µM] | EC50 [2] [µM] | EC50 [3] [µM]
1 | COC[C@@H](NC(=O)c1ccc(-c2cc(Cl)ccc2-c2nc3ccccc3n2C)c(C(=O)O)c1)c1ccccc1 [Example 138, 5′-chloro-4-{[(1S)-2-methoxy-1-phenylethyl]carbamoyl}-2′-(1-methyl-1H-1,3-benzodiazol-2-yl)-[1,1′-biphenyl]-2-carboxylic acid] | 0.101 to 0.5 | 0.101 to 0.5 | 
2 | CCC[C@@H](NC(=O)c1ccc(-c2c(C)cccc2-c2nc3ccccc3[nH]2)c(C(=O)O)c1)c1ccccc1 [Example 139, 2′-(1H-1,3-benzodiazol-2-yl)-6′-methyl-4-{[(1R)-1-phenylbutyl]carbamoyl}-[1,1′-biphenyl]-2-carboxylic acid] |  | < 0.01 | 
3 | CCC[C@@H](NC(=O)c1ccc(-c2c(F)cccc2-c2nc3ccccc3[nH]2)c(C(=O)O)c1)c1ccccc1 [Example 140, 2′-(1H-1,3-benzodiazol-2-yl)-6′-fluoro-4-{[(1R)-1-phenylbutyl]carbamoyl}-[1,1′-biphenyl]-2-carboxylic acid] |  | < 0.01 | 
4 | CCC[C@@H](NC(=O)c1ccc(-c2c(F)cccc2-c2nc3cc(OC)ccc3[nH]2)c(C(=O)O)c1)c1ccccc1 [Example 143, 2′-fluoro-6′-(5-methoxy-1H-1,3-benzodiazol-2-yl)-4-{[(1R)-1-phenylbutyl]carbamoyl}-[1,1′-biphenyl]-2-carboxylic acid] |  | < 0.01 | 
5 | CCC[C@@H](NC(=O)c1ccc(-c2c(C)cccc2-c2nc3cnccc3[nH]2)c(C(=O)O)c1)c1ccccc1 [Example 149, 2′-{1H-imidazo[4,5-c]pyridin-2-yl}-6′-methyl-4-{[(1R)-1-phenylbutyl]carbamoyl}-[1,1′-biphenyl]-2-carboxylic acid] |  | < 0.01 | 
6 | CCCC(CCC)NC(=O)c1ccc(-c2c(Cl)cccc2-c2nc3ccccc3[nH]2)c(C(=O)O)c1 [Example 153, (S)-2′-(1H-1,3-benzodiazol-2-yl)-6′-chloro-4-[(heptan-4-yl)carbamoyl]-[1,1′-biphenyl]-2-carboxylic acid] |  | 0.01 to 0.1 | 
7 | CCC[C@H](NC(=O)c1ccc(-c2c(Cl)cccc2-c2nc3ccccc3[nH]2)c(C(=O)O)c1)c1cccnc1 [Example 190, (S)-2′-(1H-1,3-benzodiazol-2-yl)-6′-chloro-4-{[1-(pyridin-3-yl)butyl]carbamoyl}[1,1′-biphenyl]-2-carboxylic acid] | 0.01 to 0.1 |  | 0.01 to 0.1
8 | CCC[C@H](NC(=O)c1ccc(-c2c(Cl)cccc2-c2nc3ccccc3[nH]2)c(C(=O)O)c1)c1cccnc1 [Example 193, (S)-2′-(1H-1,3-benzodiazol-2-yl)-6′-chloro-4-{[1-(pyridin-3-yl)butyl]carbamoyl}-[1,1′-biphenyl]-2-carboxylic acid] | 0.01 to 0.1 |  | 
9 | CCCC(NC(=O)c1ccc(-c2c(Cl)cccc2-c2nc3ccccc3[nH]2)c(C(=O)O)c1)c1cncs1 [Example 194, (S)-2′-(1H-1,3-benzodiazol-2-yl)-6′-chloro-4-{[1-(1,3-thiazol-5-yl)butyl]carbamoyl}-[1,1′-biphenyl]-2-carboxylic acid] | 0.01 to 0.1 |  | 0.01 to 0.1
10 | CCCC(NC(=O)c1ccc(-c2cc(Cl)ccc2-c2nc3cc(C(C)(C)C)ccc3[nH]2)c(C(=O)OC)c1)c1ccccc1OC (stereo not drawn) [Example 203, methyl 2′-(5-tert-butyl-1H-1,3-benzodiazol-2-yl)-5′-chloro-4-{[1-(2-methoxyphenyl)butyl]carbamoyl}-[1,1′-biphenyl]-2-carboxylate] | 0.01 to 0.1 |  | 0.01 to 0.1
11 | COc1cc2nc(-c3cccc(Cl)c3-c3ccc(C(=O)NC(c4ccc(Cl)cc4)C4CC4)cc3C(=O)NS(C)(=O)=O)[nH]c2cc1F (stereo not drawn) [Example 206, 2′-chloro-N4-[(4-chlorophenyl)(cyclopropyl)methyl]-6′-(6-fluoro-5-methoxy-1H-1,3-benzodiazol-2-yl)-N2-methanesulfonyl-[1,1′-biphenyl]-2,4-dicarboxamide] | 0.01 to 0.1 |  | 0.01 to 0.1
12 | CCCC(NC(=O)c1ccc(-c2cc(Cl)ccc2-c2nc3ccccc3[nH]2)c(C(=O)O)c1)c1ccccc1OC (stereo not drawn) [Example 208, 2′-(1H-1,3-benzodiazol-2-yl)-5′-chloro-4-{[1-(2-methoxyphenyl)butyl]carbamoyl}-[1,1′-biphenyl]-2-carboxylic acid] | < 0.01 |  | 

More lines, now with the values ahead:

Row | EC50 [1] [µM] | EC50 [2] [µM] | EC50 [3] [µM] | Compound
13 | < 0.01 | < 0.01 |  | CCC[C@@H](NC(=O)c1ccc(-c2c(C)cccc2-c2nc3cc(OC)ccc3[nH]2)c(C(=O)O)c1)c1ccccc1 [Example 142, 2′-(5-methoxy-1H-1,3-benzodiazol-2-yl)-6′-methyl-4-{[(1R)-1-phenylbutyl]carbamoyl}-[1,1′-biphenyl]-2-carboxylic acid]
14 | < 0.01 | < 0.01 |  | CCC[C@@H](NC(=O)c1ccc(-c2c(C)cccc2-c2nc3cc(C(C)(C)C)ccc3[nH]2)c(C(=O)O)c1)c1ccccc1 [Example 144, 2′-(5-tert-butyl-1H-1,3-benzodiazol-2-yl)-6′-methyl-4-{[(1R)-1-phenylbutyl]carbamoyl}-[1,1′-biphenyl]-2-carboxylic acid]
15 | < 0.01 | < 0.01 |  | CCC[C@@H](NC(=O)c1ccc(-c2c(F)cccc2-c2nc3cc(C(C)(C)C)ccc3[nH]2)c(C(=O)O)c1)c1ccccc1 [Example 145, 2′-(5-tert-butyl-1H-1,3-benzodiazol-2-yl)-6′-fluoro-4-{[(1R)-1-phenylbutyl]carbamoyl}-[1,1′-biphenyl]-2-carboxylic acid]
16 | < 0.01 | < 0.01 |  | CCC[C@@H](NC(=O)c1ccc(-c2c(C)cccc2-c2nc3c(O)cccc3[nH]2)c(C(=O)O)c1)c1ccccc1 [Example 148, 2′-(4-hydroxy-1H-1,3-benzodiazol-2-yl)-6′-methyl-4-{[(1R)-1-phenylbutyl]carbamoyl}-[1,1′-biphenyl]-2-carboxylic acid]
17 | < 0.01 | < 0.01 |  | CCOCC(NC(=O)c1ccc(-c2c(Cl)cccc2-c2nc3ccccc3[nH]2)c(C(=O)O)c1)c1ccccc1 [Example 157, (S)-2′-(1H-1,3-benzodiazol-2-yl)-6′-chloro-4-{[(1S)-2-ethoxy-1-phenylethyl]carbamoyl}-[1,1′-biphenyl]-2-carboxylic acid]
18 | < 0.01 |  | < 0.01 | CCCC(NC(=O)c1ccc(-c2c(Cl)cccc2-c2nc3ccccc3[nH]2)c(C(=O)O)c1)c1cccc(Cl)c1 [Example 167, (S)-2′-(1H-1,3-benzodiazol-2-yl)-6′-chloro-4-{[1-(3-chlorophenyl)butyl]carbamoyl}-[1,1′-biphenyl]-2-carboxylic acid]
19 | < 0.01 |  | < 0.01 | CC[C@H](NC(=O)c1ccc(-c2c(Cl)cccc2-c2nc3ccccc3[nH]2)c(C(=O)O)c1)c1ccc(Cl)cc1OC [Example 170, (S)-2′-(1H-1,3-benzodiazol-2-yl)-6′-chloro-4-{[1-(4-chloro-2-methoxyphenyl)propyl]carbamoyl}-[1,1′-biphenyl]-2-carboxylic acid]
20 | < 0.01 |  | < 0.01 | CCC[C@H](NC(=O)c1ccc(-c2c(Cl)cccc2-c2nc3ccccc3[nH]2)c(C(=O)O)c1)c1ccccc1F [Example 174, (S)-2′-(1H-1,3-benzodiazol-2-yl)-6′-chloro-4-{[1-(2-fluorophenyl)butyl]carbamoyl}-[1,1-biphenyl]-2-carboxylic acid]
21 | < 0.01 |  | < 0.01 | CCCC(NC(=O)c1ccc(-c2c(Cl)cccc2-c2nc3ccccc3[nH]2)c(C(=O)O)c1)c1ccc(Cl)cc1OC [Example 179, (S)-2′-(1H-1,3-benzodiazol-2-yl)-6′-chloro-4-{[1-(4-chloro-2-methoxyphenyl)butyl]carbamoyl}-[1,1′-biphenyl]-2-carboxylic acid]
22 | < 0.01 |  | < 0.01 | CCCC(NC(=O)c1ccc(-c2c(Cl)cccc2-c2nc3ccccc3[nH]2)c(C(=O)O)c1)c1ccccn1 [Example 180, (S)-2′-(1H-1,3-benzodiazol-2-yl)-6′-chloro-4-{[1-(pyridin-2-yl)butyl]carbamoyl}-[1,1′-biphenyl]-2-carboxylic acid]
23 | < 0.01 |  | < 0.01 | CCC[C@H](NC(=O)c1ccc(-c2c(Cl)cccc2-c2nc3ccccc3[nH]2)c(C(=O)O)c1)c1ccc(Cl)cc1C(F)(F)F [Example 181, (S)-2′-(1H-1,3-benzodiazol-2-yl)-6′-chloro-4-({1-[4-chloro-2-(trifluoromethyl)phenyl]butyl}carbamoyl)-[1,1′-biphenyl]-2-carboxylic acid]
24 | < 0.01 |  | < 0.01 | CCC[C@H](NC(=O)c1ccc(-c2c(Cl)cccc2-c2nc3ccccc3[nH]2)c(C(=O)O)c1)c1ccc(Cl)cc1 [Example 187, (S)-2′-(1H-1,3-benzodiazol-2-yl)-6′-chloro-4-{[1-(4-chlorophenyl)butyl]carbamoyl}-[1,1′-biphenyl]-2-carboxylic acid]
25 | < 0.01 |  | < 0.01 | CCC[C@H](NC(=O)c1ccc(-c2c(Cl)cccc2-c2nc3cc(Cl)c(F)cc3[nH]2)c(C(=O)O)c1)C1CCCCCC1 [Example 202, (S)-2′-chloro-6′-(5-chloro-6-fluoro-1H-1,3-benzodiazol-2-yl)-4-[(1-cycloheptylbutyl)carbamoyl]-[1,1′-biphenyl]-2-carboxylic acid]
26 | < 0.01 |  | < 0.01 | CCCC(NC(=O)c1ccc(-c2cc(Cl)ccc2-c2nc3ccccc3[nH]2)c(C(=O)O)c1)c1ccccc1OC (stereo not drawn) [Example 207, 2′-(1H-1,3-benzodiazol-2-yl)-5′-chloro-4-{[1-(2-methoxyphenyl)butyl]carbamoyl}-[1,1′-biphenyl]-2-carboxylic acid]
